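Each compound was tested at five concentrations against cells in 96-well plates for 48 hours. GI50 marks 50% less growth.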 The source made the active and inactive calls. Rule as the data show it: active = GI50 up to about 1.1 µM and inactive = higher.
Assays:
Experiment in all cases: NCI-60 cell line screen, 48 h
A549 = tested on: A549
ACHN = tested on: ACHN
CAKI-1 = tested on: CAKI-1
CCRF-CEM = tested on: CCRF-CEM
COLO 205 = tested on: COLO 205
DLD-1 = tested on: DLD-1
DMS-273 = tested on: DMS-273
EKVX = tested on: EKVX
HCC 2998 = tested on: HCC 2998
HCT-15 = tested on: HCT-15
HL-60 = tested on: HL-60
HOP-18 = tested on: HOP-18
HOP-92 = tested on: HOP-92
HT-29 = tested on: HT-29
IGROV-1 = tested on: IGROV-1
K562 = tested on: K562
KM-20L2 = tested on: KM-20L2
KM12 = tested on: KM12
LOX IMVI = tested on: LOX IMVI
LXFL 529 = tested on: LXFL 529
M14 = tested on: M14
M19-MEL = tested on: M19-MEL
MOLT-4 = tested on: MOLT-4
Malme-3M = tested on: Malme-3M
NCI-H226 = tested on: NCI-H226
NCI-H23 = tested on: NCI-H23
NCI-H460 = tested on: NCI-H460
NCI-H522 = tested on: NCI-H522
OVCAR-5 = tested on: OVCAR-5
OVCAR-8 = tested on: OVCAR-8
RXF 393 = tested on: RXF 393
SF-268 = tested on: SF-268
SF-295 = tested on: SF-295
SF-539 = tested on: SF-539
SK-MEL-28 = tested on: SK-MEL-28
SK-MEL-2 = tested on: SK-MEL-2
SK-MEL-5 = tested on: SK-MEL-5
SK-OV-3 = tested on: SK-OV-3
SN12C = tested on: SN12C
SNB-19 = tested on: SNB-19
SNB-75 = tested on: SNB-75
SNB-78 = tested on: SNB-78
SR = tested on: SR
SW-620 = tested on: SW-620
TK-10 = tested on: TK-10
U-251 = tested on: U-251
UACC-257 = tested on: UACC-257
UO-31 = tested on: UO-31
XF498 = tested on: XF498
786-0 = tested on: 786-0
A498 = tested on: A498
BT-549 = tested on: BT-549
DMS-114 = tested on: DMS-114
DU-145 = tested on: DU-145
HCT-116 = tested on: HCT-116
HOP-62 = tested on: HOP-62
Hs-578T = tested on: Hs-578T
MCF7 = tested on: MCF7
MDA-MB-231 = tested on: MDA-MB-231
MDA-MB-435 = tested on: MDA-MB-435
MDA-N = tested on: MDA-N
NCI/ADR-RES = tested on: NCI/ADR-RES
OVCAR-3 = tested on: OVCAR-3
OVCAR-4 = tested on: OVCAR-4
PC-3 = tested on: PC-3
RPMI-8226 = tested on: RPMI-8226
T47D = tested on: T47D
UACC-62 = tested on: UACC-62

C=C(/C=C/C=C(\C)CCC=C(C)C)[C@@H]1CC[C@]2([C@H](CCCO)/C(=C(/C)C=O)CC[C@]2(C)O)[C@@H]1O
GI50 (A549): 13300 nM (inactive) | GI50 (ACHN): > 100000 nM (inactive) | GI50 (CAKI-1): 28000 nM (inactive) | GI50 (CCRF-CEM): 15800 nM (inactive) | GI50 (COLO 205): 11000 nM (inactive) | GI50 (DLD-1): 18400 nM (inactive) | GI50 (DMS-273): 14600 nM (inactive) | GI50 (EKVX): 22400 nM (inactive) | GI50 (HCC 2998): 20900 nM (inactive) | GI50 (HCT-15): 19400 nM | GI50 (HL-60): 11500 nM (inactive) | GI50 (HOP-18): 23900 nM (inactive) | GI50 (HOP-92): < 10 nM (active) | GI50 (HT-29): 15800 nM (inactive) | GI50 (IGROV-1): 32200 nM (inactive) | GI50 (K562): 11200 nM (inactive) | GI50 (KM-20L2): 29300 nM (inactive) | GI50 (KM12): 1410 nM (inactive) | GI50 (LOX IMVI): 14700 nM (inactive) | GI50 (LXFL 529): 19100 nM (inactive) | GI50 (M14): 21700 nM (inactive) | GI50 (M19-MEL): > 10000 nM (inactive) | GI50 (MOLT-4): 7620 nM (inactive) | GI50 (Malme-3M): 11800 nM (inactive) | GI50 (NCI-H226): 24000 nM (inactive) | GI50 (NCI-H23): 19500 nM (inactive) | GI50 (NCI-H460): 9710 nM (inactive) | GI50 (NCI-H522): 16700 nM (inactive) | GI50 (OVCAR-5): 61800 nM (inactive) | GI50 (OVCAR-8): 20600 nM (inactive) | GI50 (RXF 393): 22600 nM (inactive) | GI50 (SF-268): 19200 nM (inactive) | GI50 (SF-295): 15600 nM (inactive) | GI50 (SF-539): 12600 nM (inactive) | GI50 (SK-MEL-28): 15100 nM (inactive) | GI50 (SK-MEL-2): 20200 nM (inactive) | GI50 (SK-MEL-5): 22600 nM (inactive) | GI50 (SK-OV-3): > 100000 nM (inactive) | GI50 (SN12C): 17100 nM (inactive) | GI50 (SNB-19): 22200 nM (inactive) | GI50 (SNB-75): 91600 nM (inactive) | GI50 (SNB-78): 17700 nM (inactive) | GI50 (SR): 18800 nM (inactive) | GI50 (SW-620): 16300 nM (inactive) | GI50 (TK-10): 31300 nM (inactive) | GI50 (U-251): 14900 nM (inactive) | GI50 (UACC-257): 22600 nM (inactive) | GI50 (UO-31): 19500 nM (inactive) | GI50 (XF498): 18700 nM (inactive)

CC(C)CCCCCCCCCCCCC(=O)NCC(=O)NC1C(O)C(O)C(Nc2[nH]cnc3ncnc2-3)OC1C(O)CO (configuration not stated)
GI50 (786-0): 225 nM (active) | GI50 (A498): 0.248 nM (active) | GI50 (ACHN): 225 nM (active) | GI50 (BT-549): 207 nM (active) | GI50 (CAKI-1): 0.472 nM (active) | GI50 (CCRF-CEM): 56.8 nM (active) | GI50 (DLD-1): 20.5 nM (active) | GI50 (DMS-114): 0.416 nM (active) | GI50 (DMS-273): 0.133 nM (active) | GI50 (DU-145): 190 nM (active) | GI50 (EKVX): 1.75 nM (active) | GI50 (HCC 2998): 0.18 nM (active) | GI50 (HCT-116): 0.479 nM (active) | GI50 (HCT-15): 65.3 nM | GI50 (HL-60): 0.57 nM (active) | GI50 (HOP-18): 0.164 nM (active) | GI50 (HOP-62): 0.453 nM (active) | GI50 (HOP-92): 0.49 nM (active) | GI50 (HT-29): 0.555 nM (active) | GI50 (Hs-578T): 172 nM (active) | GI50 (IGROV-1): 0.508 nM (active) | GI50 (K562): 43.6 nM (active) | GI50 (KM-20L2): 0.166 nM (active) | GI50 (KM12): 0.575 nM (active) | GI50 (LOX IMVI): 0.508 nM (active) | GI50 (M14): 191 nM (active) | GI50 (M19-MEL): 0.211 nM (active) | GI50 (MCF7): 23.4 nM (active) | GI50 (MDA-MB-231): 182 nM (active) | GI50 (MDA-MB-435): 224 nM (active) | GI50 (MDA-N): 229 nM (active) | GI50 (MOLT-4): 12.1 nM (active) | GI50 (Malme-3M): 0.679 nM (active) | GI50 (NCI-H226): 0.552 nM (active) | GI50 (NCI-H23): 1.25 nM (active) | GI50 (NCI-H460): 0.541 nM (active) | GI50 (NCI-H522): 0.664 nM (active) | GI50 (NCI/ADR-RES): 4.03 nM (active) | GI50 (OVCAR-3): 0.605 nM (active) | GI50 (OVCAR-4): 0.492 nM (active) | GI50 (OVCAR-5): 1.99 nM (active) | GI50 (OVCAR-8): 0.578 nM (active) | GI50 (PC-3): 183 nM (active) | GI50 (RPMI-8226): 0.525 nM (active) | GI50 (RXF 393): 0.877 nM (active) | GI50 (SF-268): 3.59 nM (active) | GI50 (SF-295): 0.604 nM (active) | GI50 (SF-539): 0.849 nM (active) | GI50 (SK-MEL-28): 31.6 nM (active) | GI50 (SK-MEL-2): 5.79 nM (active) | GI50 (SK-MEL-5): 1.14 nM (active) | GI50 (SK-OV-3): 0.671 nM (active) | GI50 (SN12C): 0.753 nM (active) | GI50 (SNB-19): 0.564 nM (active) | GI50 (SNB-75): 0.441 nM (active) | GI50 (SNB-78): 0.148 nM (active) | GI50 (SR): 426 nM (active) | GI50 (T47D): 320 nM (active) | GI50 (TK-10): 179 nM (active) | GI50 (U-251): 0.461 nM (active) | GI50 (UACC-257): 0.605 nM (active) | GI50 (UACC-62): 0.519 nM (active) | GI50 (UO-31): 0.574 nM (active)

Source: ChEMBL document CHEMBL1201862, “PubChem BioAssay data set” (2004)
